Measured values reported in patent US20230107216A1, “PANTETHEINE DERIVATIVES AND USES THEREOF” (Comet Therapeutics, Inc., priority 2018, published 2023).
Like-named read-outs stand apart in the source and are kept apart here.

How the values were obtained:
[1] = system: Bronchial epithelial cells co-cultured with dermal fibroblast (BF4T system); assay: BioMAP BF4T system (TNFα and IL-4); assay type: cell-based, human; settings: procedure of Example 830
[2] = system: Dermal fibroblasts (HDF3CGF system); assay: BioMAP HDF3CGF system (IL-1β, TNFα, IFNγ, EGF, bFGF, PDGF-BB); assay type: cell-based, human
[3] = system: Peripheral blood mononuclear cells co-cultured with venular endothelial cells (HUVEC) (LPS system); assay: BioMAP LPS system; assay type: cell-based, human; settings: procedure of Example 827; for inhibition at 1 µM / activation at 10 µM / inhibition at 10 µM: Homo sapiens, HUVEC, 24 h; for activation at 10 µM: read-out: % increase in sTNFα
[4] = system: Bronchial epithelial cells (BE3C system); assay: BioMAP BE3C system (IL-1β, TNFα, IFNγ); assay type: cell-based, human; settings: 10 uM, procedure of Example 831; for inhibition at 10 µM: Homo sapiens, Epithelial cell, 24 h, read-out: % decrease in MMP-1
[5] = system: Propionic Acidemia (PA) primary fibroblasts GM00371; assay: Mitochondrial respiration, XFe96 Extracellular Flux Analyzer (OCR/ECAR), PA fibroblasts GM00371; assay type: cell-based; settings: Homo sapiens, Fibroblast, read-out: Increase in Maximal Respiratory Capacity AUC; for activation at 50 µM: assay condition C (10 mM glucose, 10% FBS)
[6] = system: Venular Endothelial cells (HUVEC) (4H system); assay: BioMAP 4H system (IL-4 and histamine); assay type: cell-based, human; settings: procedure of Example 826; for inhibition at 1 µM: Homo sapiens, HUVEC, 24 h, read-out: % decrease in VEGFRII
[7] = system: Venular Endothelial cells (HUVEC) (3C system); assay: BioMAP 3C system (IL-1β, TNFα, IFNγ); assay type: cell-based, human; settings: 10 uM; procedure of Example 825
Method: The BioMAP platform (BioMAP® Diversity PLUS® Panel from Eurofins) is an in vitro phenotypic profiling technology that screened the compounds of the present disclosure (hereafter indicated as test agents) in human primary cell-based systems modelling complex tissue and disease states. The BioMAP assays were performed using the Eurofin's BioMAP Technology Platform as (see references 1 to 13 in the example 824 section) to model different diseases on primary cell-based model systems. These systems consisted of either single primary cell types or co-culture cells. Adherent cell types were cultured or co-cultured in 96 or 384-well plates until confluence followed by the addition of compounds prepared in DMSO at a final concentration of ≤0.1%. In each cell-based system, primary cells from heathy donors (2-6 donors) were pooled and treated with compounds at 1 and 10 μM dose 1h prior to stimulation and remain in culture as indicated in Example 825, Example 826, Example 827, Example 828, Example 829, Example 830, Example 831, Example 832, Example 833, Example 834, Example 835, Example 836 and Example 837. For on the BioMAP® Diversity PLUS® Panel, please see the following references, which are incorporate herein.
Following the general procedure as described in Example 824, Venular Endothelial cells (HUVEC) (3C system) were treated with IL-1β, TNFα, IFNγ for 24h to model Th1 driven cardiovascular and chronic inflammation diseases in the presence or absence of the compounds. Biomarker read out were; Tissue Factor, ICAM-1, E-selectin, uPAR (CD87), IL-8, MIG, HLA-DR, proliferation and SRB (Sulfo-rhodamine i.e. staining for protein content).

[8] = system: Peripheral blood mononuclear cells co-cultured with B-cells (BT system); assay: cells; settings: Homo sapiens, 72 h
[9] = system: Coronary artery smooth muscle cells (CASM3C system); assay: BioMAP CASM3C system (IL-1β, TNFα, IFNγ); assay type: cell-based, human; settings: for inhibition at 10 µM: Homo sapiens, 24 h, read-out: % decrease in Thrombomodulin
[10] = system: HepG2 cells; assay: Glucose uptake (Glucose Uptake-Glo); assay type: cell-based; settings: Homo sapiens, 10 uM, read-out: % increase in Glucose Uptake
[11] = system: Peripheral blood mononuclear cells co-cultured with B-cells (BT system)
[12] = system: primary culture of rat embryo mesencephalic cells (microglia, astrocytes and neurons) exposed to LPS; assay: Neuroprotective effect on damage induced by LPS on culture of mesencephalic neurons (NO, TNF-α, IL-1β, TH positive neurons); assay type: cell-based; settings: 50 uM, after 5 days of LPS exposure; for inhibition at 50 µM: Rattus norvegicus, Neuron, 120 h, read-out: % reversion of TH positive neurons
Method: Drug preparation. […] The stock solutions will be prepared 1000× the concentration in 100% DMSO. The final concentration of the vehicle (DMSO) is set at 0.1%.
Test animals. Pregnant Wistar rats (Janvier; France) are used for the study. They are group-housed and maintained in a room with controlled temperature (21-22° C.) and a reversed light-dark cycle (12h/12h; lights on: 17:30-05:30; lights off: 05:30-17:30) with food and water available ad libitum.
The protocol is performed in 3 independent cultures. For each culture, each condition is performed in sextuplicate.
Female rat of 15 days gestation is killed by cervical dislocation. Fetuses are removed from the uterus and their brains are harvested and placed in ice-cold medium (Leibovitz's L15 medium, Gibco). Only ventral mesencephalic flexure is used for the cell preparations. The midbrain is dissociated by trypsinization. The reaction is stopped, and the suspension is triturated and centrifuged. The pellet of dissociated cells is resuspended in culture medium consisted of DMEM-F12 (Gibco), containing 10% FBS (ATCC), 10% Horse serum (Gibco) and 2 mM L-glutamine (Gibco). Viable cells are counted and seeded on 96-well plates, precoated with poly-L-lysine. Cells are maintained in a humidified incubator at 37° C. in 5% CO2-95% air atmosphere. Half of the medium is changed on day 2 and day 5.
Treatment. On day 7, culture media are removed and replaced by new medium consisting of DMEM-F12 (Gibco) supplemented with 2% FBS (ATCC), 2% Horse serum (Gibco) and 2 mM L-glutamine (Gibco) and containing vehicle or test substances. After 1-hour exposure, LPS at 10 ng/ml is added and exposure further continued for 24 hours or 5 days period.
Inflammatory response measurement and neuronal death evaluation. NO production is measured in the media 24h and 5 days after LPS exposure using the Griess reagent kit (Molecular Probes). The Griess reagent Assay is a colorimetric reaction assay which measures the conversion of a sulfanilic salt into an azo dye product by nitrite. Visible wavelength absorbance data is collected using a 96-well plate reader at 570 nm (Multiskan EX, Thermo Fisher, France). IL-1β and TNF-α release are measured in the media 24h after LPS exposure using the ELISA development kit (PeproTech). The ELISA plate, previously coated with anti-IL-1β or anti-TNF-αantibody at 1 μg/ml, is incubated 1h with PBS containing 1% of BSA (bovine serum albumin). After washing four times with PBS containing 0.05% of Tween-20, the plate is successively incubated 2h with supernatant, 2h with biotinylated antibody at 0.5 μg/ml in PBS containing 0.1% of BSA and 0.05% of Tween-20, 45 min with Avidin-HRP conjugated at 1/2000 and 30 min with color ABTS substrate (Sigma). Visible wavelength absorbance data is collected using a 96-well plate reader at 405 nm with wavelength correction set at 650 nm (Multiskan EX, Thermo Fisher, France).
Immunodetection of tyrosine hydroxylase positive neurons. On day 12 (5 days after LPS exposure), cultures are fixed 30 min at 4° C. with paraformaldehyde in PBS (4%, Sigma). Then, cells are successively permeabilized with 0.1% Triton X100 for 30 min, saturated with PBS containing 3% of BSA (bovine serum albumin) and are incubated 2h with anti-tyrosine hydroxylase antibody (Sigma, 1:10000; clone TH-2) at 1/10 000 in PBS containing 0.5% of BSA. Cells are washed three times with PBS containing 0.5% of BSA, and they are incubated 1h with goat anti mouse antibody coupled with AF488 (Invitrogen A11001) diluted at 1/1000 in PBS containing 0.5% of BSA. Finally, nuclei are stained with DAPI at 1/1000 in PBS containing 0.5% of BSA. After rinsing with PBS, the plate is visualized and examined with Cell Insight HCS (Thermo Scientific) to determine the number of tyrosine hydroxylase positive cells per well.
Statistical Analysis. The drug-induced effect on NO and cytokines is calculated by setting the response of the LPS-stimulated control as 100%. […]

[13] = 10 uM, procedure of Example 833
[14] = 10 uM, procedure of Example 829

COC(=O)CCC(=O)SCCNC(=O)CCNC(=O)[C@H](O)C(C)(C)COC(=O)OCC[N+](C)(C)C [Compound 117, [2-([[(3R)-3-hydroxy-3-[[2-([2-[(4-methoxy-4-oxobutanoyl)sulfanyl]ethyl]carbamoyl)ethyl]carbamoyl]-2,2-dimethylpropoxy]carbonyl]oxy)ethyl]trimethylazanium]
≥ 30%: activation at 10 µM [10]
≥ 20%: activation at 10 µM [3] | inhibition at 1 µM ([8]; read-out: % decrease in sIL-17)
≥ 10%: activation at 10 µM ([2]; Homo sapiens, Fibroblast, 72 h, 10 uM, read-out: % increase in 72 Hour Proliferation) | inhibition at 1 µM ([3]; 1 uM, read-out: % decrease in sPGE2) | inhibition at 10 µM [4] | activation at 50 µM [5] | inhibition at 1 µM [6] | activation at 10 µM ([8]; read-out: % increase in sIL-6) | inhibition at 10 µM ([9]; 10 uM)
≥10%: % decrease in tPA ([1]; 10 uM) | % increase in IL-1α ([3]; 1 uM) | % increase in Tissue Factor ([3]; 1 uM) | % decrease in tPA [4] | % increase in Proliferation (HUVEC) [7] | % decrease in CXCL9 ([9]; 10 uM)

COC(=O)/C=C/C(=O)SCCNC(=O)CCNC(=O)[C@H](O)C(C)(C)COC(C)=O [Compound 145, methyl (2E)-4-[(2-[3-[(2R)-4-(acetyloxy)-2-hydroxy-3,3-dimethylbutanamido]propanamido]ethyl)sulfanyl]-4-oxobut-2-enoate]
≥ 50%: inhibition at 50 µM ([12]; list at threshold 50%)
≥35%: % decrease in NO release relative to LPS alone [12]
≥ 10%: activation at 1 µM ([1]; Homo sapiens, 24 h, 1 uM, read-out: % increase in VCAM-1) | inhibition at 10 µM ([2]; Homo sapiens, Fibroblast, 24 h, 10 uM, read-out: % decrease in Collagen III) | inhibition at 10 µM ([3]; read-out: % decrease in IL-1α) | inhibition at 10 µM ([3]; read-out: % decrease in IL-8) | activation at 10 µM [3] | inhibition at 1 µM ([8]; read-out: % decrease in sIL-17)
≥20%: % decrease in B-cell proliferation ([11]; 1 uM, procedure of Example 829) | % decrease in PBMC cytotoxicity ([11]; human, 72 h, 10 µM)
≥ 15%: inhibition at 50 µM ([12]; list at threshold 15%)
≥10%: % increase in tPA ([1]; 10 uM) | % decrease in Collagen I [2, 13] | % decrease in sTNFα [11, 14] | % decrease in IL-8 [7] | % decrease in LDLR ([9]; 1 uM, procedure of Example 832) | % decrease in HLA-DR ([9]; 10 uM)
≥ 30%: activation at 10 µM [10]

CC(=O)OCCCC(=O)SCCNC(=O)CCNC(=O)[C@H](O)C(C)(C)CO [Compound 1305, 4-[(2-[3-[(2R)-2,4-dihydroxy-3,3-dimethylbutanamido]propanamido]ethyl)sulfanyl]-4-oxobutyl acetate]
≥20%: % increase in Proliferation (HUVEC) [7]
≥10%: % decrease in CXCL11/I-TAC [2, 13] | % increase in B-cell Proliferation [11, 14] | % decrease in MCP-1 ([6]; 10 uM) | % decrease in M-CSF ([9]; 1 uM, procedure of Example 832) | % decrease in Proliferation ([9]; 1 uM, procedure of Example 832) | % decrease in VCAM-1 ([9]; 1 uM, procedure of Example 832) | % decrease in CXCL9 ([9]; 10 uM) | % decrease in Tissue Factor ([9]; 10 uM)
≥ 10%: inhibition at 1 µM ([2]; Homo sapiens, Fibroblast, 24 h, 1 uM, read-out: % decrease in Collagen III) | inhibition at 1 µM ([3]; 1 uM, read-out: % decrease in IL-8) | inhibition at 1 µM ([3]; 1 uM, read-out: % decrease in TissueFactor) | inhibition at 10 µM [4] | activation at 50 µM [5] | activation at 10 µM ([5]; assay condition D (1 mM glucose, 10% FBS), 10 μM) | inhibition at 1 µM [6] | activation at 10 µM [10]
≥ 20%: activation at 10 µM [3] | inhibition at 10 µM ([8]; read-out: % decrease in sIL-17) | inhibition at 10 µM ([9]; 10 uM)
